We go through 1 compound from patent US20110152317A1, “P[…] OCCURRENCE OF OBESITY” (DUKE UNIVERSITY, priority 2008, published 2011).

The subject of test [1] is male C57BL/6 mice on a high-fat diet. Briefly: Chloroquine injection in mice on high-fat diet (obesity, insulin resistance, skeletal muscle lipid profiling). The class given is in vivo, mouse. To be noted: high-fat diet (60% of calories from fat), 60 mg/kg intraperitoneal daily for 12 weeks. The text has this:
Five adult (12 week old) male C57BL/6 mice (The Jackson Laboratory, Bar Harbor, ME) were subjected to 12 weeks of high-fat diet (HF) (60% of calories from fat) with a separate group of five mice on normal chow (NC) for the same duration as control. A significant difference in body weight between NC and HF mice was detected 4 weeks after implementation of the high-fat diet, and the body weight of the HF group continued to increase to about 55.4% above the value in age matched NC mice after 12 weeks of the high-fat diet. […] NC mice. The development of severe obesity in HF mice was accompanied by 89.0% increase (P<0.001) in blood glucose area under curve (AUC) during a glucose tolerance test. These findings indicate that high-fat diet in adult mice induced severe obesity and insulin resistance.
Five of the same kind of non-obese mice as used in Background Example 1 on a high-fat diet (60% of calories from fat) were injected with chloroquine (60 mg/kg, intraperitoneal) daily for 12 weeks of high-fat diet feeding.

The test system of test [2] is human on high-fat diet. Briefly: Oral chloroquine in a human on a high-fat diet (Working Example I). To be noted: person, 400 mg orally daily, 12 weeks. The class given is in vivo. Here is the method:
A person with BMI of 20 eats a diet where 50% of calories come from fat, e.g. cheeseburgers or steak, onion rings or french fries, and ice cream or pecan pie for dessert at dinner, cold cut sandwich and fries or pizza for lunch, eggs, sausage, hash browns for breakfast. The subject also orally takes 400 mg chloroquine orally daily. The regimen is continued for 12 weeks.

With `CCN(CC)CCCC(C)Nc1ccnc2cc(Cl)ccc12` (centres unmarked) [chloroquine], in test [1], the “high-fat diet induced changes in skeletal muscle (mass spectrometry-based profiling of lipid species)” value was “blocked high-fat diet induced changes in skeletal muscle”; the “occurrence of insulin resistance (glucose tolerance test)” value is “blocked the occurrence of obesity and insulin resistance”; the occurrence of obesity result is “blocked the occurrence of obesity”. Moreover, the BMI in test [2] (baseline BMI 20, diet 50% of calories from fat) turned out to be 20. Besides, the “development of insulin resistance” value in test [2] (diet 50% of calories from fat) is listed as “does not develop insulin resistance”.
